The text below walks through data of US6652633B2, “Fire retardant” (Arch Wood Protection, Inc., priority 2001, dated 2003).

The term pKa denotes the negative logarithm of the acid dissociation constant.

This data set is described as follows: potentiometric titration against 0.1 N NaOH with mannitol complexation (equivalence points). Format: physicochemical. As to conditions: aqueous GUP/boric acid solution complexed with mannitol; potentiometric titration of GUP/boric acid solutions, samples complexed with mannitol; read-out: pKa (equivalence point). The protocol: The mixture was heated to approximately 48° C. to dissolve all of the solids, and a sample for analysis taken. The temperature of the solution was then raised and maintained between 70° C. and 90° C. for 3.5 hours. Samples of the solution were analyzed by potentiometric titration every hour, and at the end of the 3.5 hour reaction period.
The samples were titrated against approximately 0.1 N NaOH (standardized against a potassium hydrogen phthalate standard from NIST). Because the pKa of GUP is very close to that for boric acid, the samples were each complexed with 10 g of mannitol to form a boric acid ester having a lower pKa that is more easily distinguishable from that of GUP. The results are given in Table 1,below, and plotted on FIG. 1.
Approximately 0.1000 g of solid product was combined with about 10 g mannitol and titrated against 0.1 N NaOH. The mannitol was added to react with the boric acid to for a borate ester, which has a much lower equivalence point than GUP. […] The loss in yield was attributable to the short reaction time allowed in this example. A kinetic analysis was subsequently undertaken, and it was determined that an increase in GUP yield could be obtained by increasing the reaction time, as indicated in Table 4 below.

For `N=C(N)NC(N)=O` [GUP, guanylurea phosphate], the pKa came to 7.25.
